From patent US4826817A, “Amino acid and hydroxyamino acid transporter compounds for therapeutic applications, process and use” (priority 1986, dated 1989) come the findings set out here.

Series [1] can be described thus: Plasma and brain levels of L-tyrosine after intraperitoneal injection to rats. The following applies: rat; for concentration at 0.5 h / concentration at 2 h: ip, 1620 umol/kg.
Protocol: Male CD-COBS rats (Charles River, Italy) weighing 200 g were used. The animals housed under standard conditions of light-dark cycle, temperature and humidity with free access to water and food. […] Controls received saline. Rates were killed by decapitation 30 and 120 min. after treatment. Plasma and brain were rapidly removed and kept at -20° C. until assay.
The nature of series [2]: Plasma and brain levels of L-tyrosine after intravenous injection to rats. The series is classed as in vivo, rat (male CD-COBS). The following applies: rat, i.v. 1.62 mmol/kg, Table I. An excerpt:
Controls received saline.

For the molecule `N[C@@H](Cc1ccc(O)cc1)C(=O)O` [L-tyrosine], in series [1] (brain), the concentration at 0.5 h turned out to be 20200 ± 1750 ng/g and the concentration at 2 h was 21800 ± 1520 ng/g. Moreover, the “brain L-tyrosine concentrations (in words)” value in series [1] (i.p. 1.62 mmol/kg, both intervals (30 and 120 min), Table II, L-tyrosine p<0.05, O-L-lysyl-L-tyrosine p<0.01) is reported as “significantly increased”. In series [1] (plasma), the concentration at 0.5 h was determined as 16900 ± 2060 ng/g and the concentration at 2 h amounted to 12700 ± 2230 ng/g.
On to `NCCCC[C@H](N)C(=O)Oc1ccc(C[C@H](N)C(=O)O)cc1` [O-L-lysyl-L-tyrosine], for which the “Plasma L-tyrosine (in words)” value in series [2] is “significantly raised by only 30 min. after the i.v. dose”. Moreover, the “brain L-tyrosine concentrations (in words)” value in series [2] (both intervals (30 and 120 min)) is listed as “significantly increased”.
